Consider 7 compounds from PMC5340293 (Bioorganic & medicinal chemistry letters, 2016).

SMILES strings stand for the structures. Like-named read-outs stand apart in the source and are kept apart here.

The target of assay [1] is T1, PAR4 (Homo sapiens, UniProt Q96RI0).
T1 sequence (Q96RI0 18-385): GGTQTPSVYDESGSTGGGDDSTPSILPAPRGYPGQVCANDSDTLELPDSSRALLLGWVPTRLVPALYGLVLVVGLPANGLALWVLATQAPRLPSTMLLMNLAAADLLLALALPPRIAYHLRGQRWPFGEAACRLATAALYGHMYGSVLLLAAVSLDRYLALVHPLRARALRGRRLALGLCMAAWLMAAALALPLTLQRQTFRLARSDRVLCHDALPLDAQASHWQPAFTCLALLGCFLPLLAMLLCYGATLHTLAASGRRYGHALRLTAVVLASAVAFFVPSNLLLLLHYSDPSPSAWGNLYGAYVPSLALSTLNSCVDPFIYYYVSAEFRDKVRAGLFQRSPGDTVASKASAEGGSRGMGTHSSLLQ
Briefly: Progressive fold-shift. Format: cell-based. The note with it: for mode of PAR4 inhibition: progressive fold-shift, parallel right-ward shift of CRC.

The target in assay [2] is T1, PAR4. The assay is described as follows: PAR4-AP stimulated PAC-1 binding, flow cytometry. Format: cell-based. (Flow cytometry measures light scatter and fluorescence of single cells or particles in a stream.)
The target of assay [3] is T1, PAR4. As to conditions: cited from earlier work.
Another assay concerns collagen receptor. Briefly: Platelet aggregation, collagen I activation. Type of assay: cell-based, human. The note with it: 10 μg/ml collagen I; antagonist at micromolar concentrations.
Assay [4] has as its target T2, PAR4 (Homo sapiens, UniProt Q96RI0).
T2 sequence (Q96RI0 48-385 limits assumed): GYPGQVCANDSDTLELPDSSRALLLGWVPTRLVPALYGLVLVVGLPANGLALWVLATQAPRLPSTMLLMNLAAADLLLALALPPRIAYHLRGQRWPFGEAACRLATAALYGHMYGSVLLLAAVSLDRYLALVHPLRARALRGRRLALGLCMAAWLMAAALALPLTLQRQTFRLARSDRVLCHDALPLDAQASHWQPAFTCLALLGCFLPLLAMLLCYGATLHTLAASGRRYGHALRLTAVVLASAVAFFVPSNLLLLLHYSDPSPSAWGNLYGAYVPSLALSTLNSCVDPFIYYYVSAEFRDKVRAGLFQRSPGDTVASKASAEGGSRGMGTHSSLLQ
Briefly: γ-thrombin stimulated PAC-1 binding, flow cytometry. Type of assay: cell-based.

For the compound `COc1nn2cc(-c3ccc(C(F)(F)F)cc3)nc2s1` [4c], on PAR4 [1], the “Schild EC50 log DR-1 versus log [antagonist] plot slope” value was found to be 0.95±0.09 and the “mode of PAR4 inhibition” value is reported as “competitive”. For the compound `COc1nn2cc(-c3ccc(Cl)cc3)nc2s1` [4k], at PAR4 [1], the “Schild EC50 log DR-1 versus log [antagonist] plot slope” value was found to be 1.09±1.3 and the “mode of PAR4 inhibition” value is reported as “competitive”.

For the compound `COc1nn2cc(-c3ccc(OC(F)(F)F)cc3)nc2s1` [4n], at PAR4 [1], the “Schild EC50 log DR-1 versus log [antagonist] plot slope” value amounted to 0.94±0.08 and the “mode of PAR4 inhibition” value is listed as “competitive”. Regarding `CNc1nn2cc(-c3c(F)cccc3F)nc2s1` [NHCH3 derivative], on PAR4 [2] (result in words), the PAR4 inhibitory activity result was “inactive”.

On to `COc1cc(OCc2csc(-c3ccccc3)n2)c2cc(-c3cn4nc(OC)sc4n3)oc2c1` [compound 2], for which the “mode of PAR4 inhibition” value on PAR4 [3] is “mixed competitive/non-competitive”. On to `COc1nn2cc(-c3cc4ccccc4o3)nc2s1` [compound 3, 6-(benzofuran-2-yl)-2-methoxyimidazo[2,1-b][1,3,4]thiadiazole], for which the “off-target effects on the collagen receptor (collagen I induced aggregation)” value with collagen receptor was “devoid”. `COc1nn2cc(-c3cc4cc(OC(F)(F)F)ccc4n3C)nc2s1` [compound 5]: the “fold more potent than 1 against AP” value at PAR4 [2] is given as ~ 9 fold. Moreover, the “γ-thrombin ligand efficiency (LE)” value on PAR4 [4] was found to be 0.33. For the same compound, in the assay with collagen receptor, the “off-target effects on the collagen receptor (collagen I induced aggregation)” value was “eliminated”.
